Source: PubChem BioAssay AID504758 (National Center for Advancing Translational Sciences (NCATS), 2011)

Tested on: Caco-2 monolayer permeability, A-to-B, LC-MS/MS
Test: Inhibitors of Cruzain: Caco-2 Permeability Profiling Assay
Settings: hits give high values
Source text: Chagas Disease is a neglected tropical disease that affects over 16 million people in Latin America. The cysteine protease cruzain is essential for the survival Trypanosoma cruzi, the parasitic agent responsible for Chagas disease. Potential intervention for T. cruzi includes the inhibition of cruzain. This bioassay will summarize the ongoing development of small molecule cruzain inhbitiors. Currently, a screen of ~200k compounds and through extensive follow-up work a probe was identified. To further characterize the probe, it was tested in in vitro ADME assays. This permeability assay predicts the in vivo absorption of the lead across the intestinal lining by using a Caco-2 cell line and measuring the lead's rate of transport into the cytosol. […] NIH Chemical Genomics Center [NCGC] NIH Molecular Libraries Probe Production Centers Network [MLPCN] MLSCN Grant: DA024891-01 PI Name: Dr. Brian Shoichet; University of California, San Francisco
1. Buffer Preparation: Prepare 1M HEPES: add 23.83g HEPES to 100ml of 0.85% NaCl Prepare HBSS+ buffer: add 12.8ml of 1M HEPES in 0.85% NaCl to 500ml HBSS buffer. 2. Take out the compounds from -80 degrees C, ultrasonicate or pre-warm for a few minutes to thaw the compounds. 3. […] The T0, LY and T90, LY plates are read by FlexStation 3 at excitation of 485 nm and emission of 535 nm to determine LY permeability. […]

In the case of Cc1ccc(OCCn2c(CCNC(=O)C3CCCCC3)nc3ccccc32)cc1, the apparent permeability Papp is reported as 4.1 10^-6 cm/s.
